The results in this text go back to patent US6368631B1, “Fine grain carriers and medicinal composition prepared with the use of the same” (Daiichi Pharmaceutical Co., Ltd., priority 1996, dated 2002).

Series [1] in a line: In vivo evaluation of the complex of nanoparticles and PSP: plasma PSP concentration and pharmacokinetic parameters after duodenal administration. As to conditions: male, SD, rats, 9.4 mg in terms of PSP per rat, n=6, mean ± S.D. The protocol:
SD male rats (7 weeks old, about 200 g) were fasted for 24 hours. Under etherization, laparotomy was performed. By use of an injection needle, which was inserted through the pyrolus, the nanoparticle preparation (0.5 ml) prepared in Example 1 or the control preparation (0.5 ml) was administered duodenumally to the rats (dose: 9.4 mg in terms of PSP per rat; n=6). The cut was closed immediately after administration. Blood was collected from the carotid artery at 0.5, 1, 2, 4, 8, 12, and 24 hours following the administration. In accordance with the method of […] (Journal of Pharmaceutical Science, 79, 334, 1990), the plasma PSP concentration of each rat was measured. The plasma (0.3 ml) that had been centrifugally separated from the collected blood, purified water (0.3 ml), and aqueous 0.1 N NaOH solution (0.9 ml) were mixed. The mixture was filtered through use of an ultrafilter membrane (molecular weight of fractionation=10,000), to thereby remove proteins, etc. The filtrate was used as a sample solution. Separately, standard solutions were prepared through use of aqueous PSP-Na solutions (starting from 9.4 mg/ml in terms of PSP, a series of 2-fold dilutions) (0.3 ml each), a blank plasma from each rat (0.3 ml), and aqueous 0.1 N NaOH solution (0.9 ml) were mixed and ultrafiltered. For each of the sample solutions and standard solutions, absorption was determined through use of a spectrometer at the wavelength of 560 nm. Based on the results obtained from the standard solutions, a calibration curve was obtained, and the plasma PSP concentrations were measured. Based on the obtained time-plasma PSP concentration profile, pharmacokinetic parameters were calculated.

Series [2] relates to ionized calcium concentration in blood. Kind of series: In vivo evaluation of nanoparticle-sCT preparations: change of blood ionized calcium concentration after peroral administration. More on the design: species or system SD male rats. The settings on record: rats fasted 24 h, 0.5 ml preparation, single administration. The protocol: To SD male rats (7 weeks old, about 200 g) fasted for 24 hours were administered perorally the nanoparticle preparation (0.5 ml) prepared in Example 3 or the control preparation (0.5 ml) (n=5). After administration, blood was collected from the tail vein of each rat in an amount of about 60 μl at 40 minutes, 80 minutes, 2, 3, 4, 6, and 8 hours following the administration.
Using a 634 Ca^++/pH analyzer (Ciba-Coning), the concentration of ionized calcium in the collected blood was measured. The difference between the ionized calcium concentration at time 0 and that at each of the aforementioned times was calculated and plotted. From the plots, presence or absence of the effect of absorption enhancement obtained through formation of nanoparticles was determined.
In this connection, sCT is known to have the pharmacological effect of reducing the blood ionized calcium concentration.
By use of the nanoparticle preparation or the control preparation obtained in Example 7, the procedure of Example 4 was repeated to thereby determine the presence or absence of the effect of absorption enhancement obtained by the formation of nanoparticles.
By use of the nanoparticle preparation or the control preparation obtained in Example 9, the procedure of Example 4 was repeated to thereby determine the presence or absence of the effect of absorption enhancement obtained by the formation of nanoparticles. […]

As a reminder, the AUC(0-inf) is total exposure, with the tail of the curve extrapolated. Read a low AUC(0-inf) as less exposure. One may read the Cmax as the highest concentration seen after dosing. The Tmax is the time from dosing to the highest level. Regarding `O=S1(=O)OC(c2ccc(O)cc2)(c2ccc(O)cc2)c2ccccc21` [Aq. PSP-Na sol. (control prep.), phenolsulfonphthalein], in series [1], the area under the curve AUC(0-inf) turned out to be 9970 ± 2200 ng·h/mL, the concentration peaked (Cmax) at 2000 ± 290 ng/mL and the Tmax was found to be 0.92 ± 0.2 h. Besides, the MRT last in series [1] (read-out: MRT0-24 h) is 4.57 ± 0.34 h.
In the case of “salmon calcitonin [aqueous sCT solution]”, in series [2], the “effect of reducing the blood ionized calcium concentration” value is “slightly decreased”.
